According to US20260139017A1, “COMPOSITIONS AND METHODS USING REELIN IN ALZHEIMER'S DISEASE” (The General Hospital Corporation, priority 2022, published 2026):

Legend:
pDAB1 (Tyr232) [1] = assay: HRECs treated 5 minutes with HEK 293T-derived mini-RELN media, pDAB1 western blot; format: cell-based, human; conditions: HEK 293T-derived media 1:1, 1:4, 1:14, 5 minutes
Description: The effect of in vitro treatment with RELN or miniRELN protein was also evaluated. HRECs were cultured in EBM-2 media enriched with EGM-2 Single Quots (Lonza) at 37° C. and 5% CO2 and experimentally tested at passage 7. 24 h prior experiment, cells were plated on a 6-well plate at 500,000 cells/mL. Two hours before the experiment, the cells were washed with PBS to remove residual growth media and then incubated with a starving media including EBM-2, 1% GlutaMax+0,2% Normicin. Treatments was conducted using media derived from HEK 293T cells transiently transfected for 24 h with different mini-RELN constructs in the presence of Lipofectamine 2000. […] Total protein levels were quantified via BCA assay. […] We detected pDAB1 (Tyr232; 1:1000, rabbit, #3325 Cell signaling), and Beta actin (1:5000, mouse, #66009-1-Ig, Proteintech. Antibodies were diluted using Intercept® (TBS) Blocking Buffer and incubated overnight at 4C under gentle shaking. Prior secondary antibody incubation, membranes were washes 2 times using TBS-T for 10 minutes. As secondary antibodies we used IR Dye 800n CW Goat-anti-Rabbit (925-32211, Licor) and IR Dye 680 CW Goat-anti-Mouse (925-68070, Licor) both diluted 1:10000 in blocking buffer for 1 h at room temperature under gentle shaking. Membranes were washed three times with TBS-T prior IR detection using Odyssey imager. […]

pDAB1 (Tyr232) [2] = assay: HRECs treated 5 minutes with recombinant mini-RELN, pDAB1 western blot; format: cell-based, human; conditions: 5 minutes, 4 ug/mL recombinant protein
Description: For in vitro screening of constructs using recombinant mini-RELN on HRECs, the cells were cultured in EBM-2 media enriched with EGM-2 Single Quots (Lonza) at 37° C. and 5% CO2 and experimentally tested at passage 7. 24 h prior experiment, cells were plated on a 6-well plate at 500,000 cells/mL. Two hours before the experiment, the cells were washed with PBS to remove residual growth media and then incubated with a starving media including EBM-2, 1% GlutaMax+0.2% Normicin. Treatments was conducted using recombinant mini RELN constructs obtained from Innovagen and Recombinant Mouse Reelin Protein from R&D systems (3820-MR-025/CF). Each treatment was incubated for 5 minutes at 4 ug/mL concentration and cells were subsequently harvested in lysis buffer was applied constituted of RIPA (Cell signaling), proteases inhibitors (cOmplete™, Mini, EDTA-free Protease Inhibitor Cocktail, Roche), phosphatases inhibitors (PhosSTOP, Roche), 1 μL of proteasome inhibitor MG-132 10 mM, 1% Triton X 100. The lysates were scraped and centrifugated at 15000 rpm for 10 minutes at 4° C. Total protein levels were quantified via BCA assay. […] We detected pDAB1 (Tyr232; 1:1000, rabbit, #3325 Cell signaling), and total protein staining (Licor). […] To quantify the results, each band was quantified using ImageJ and data expressed as pDABL:total protein ratio normalized to the control.

## IL2signalpeptide-6XHistag(SEQ ID NO: 62)-hReelin(AALeu1220-Ile2660) Cterm-REELINWT [225SV]
pDAB1 (Tyr232) [1]
  pDAB1 / Dab1 signaling activation: efficacy
pDAB1 (Tyr232) [2]
  pDAB1 levels: increased pDAB1 levels
